Entries after “also recorded” stand apart in the source; their conditions may differ.
What was measured:
Assay type in all cases: in vivo, Arabidopsis
[1] = tested on: PmaDG6 (PmaDG3 carrying avrRpt2); assay: Growth of avirulent PmaDG6 in azelaic acid-pretreated leaves; conditions: 1 mM pretreatment
Method: (§1) (A) Local and systemic resistance response by azelaic acid treatment against virulent PmaDG3 infections. Local or systemic leaves of 21˜23-day-old plants were treated with 5 mM MES (pH 5.6) (black bars) or 1 mM azelaic acid in 5 mM MES (pH 5.6, white bars) 2 days prior to challenge with the virulent PmaDG3 strain (OD600=0.0001). MES and azelaic acid were introduced into leaves by syringe-infiltration. […] (B) Growth of avirulent strains PmaDG6 (PmaDG3 carrying avrRpt2) and PmaDG34 (PmaDG3 carrying avrRpm1) in leaves of Col pretreated with 5 mM MES (black bars) or 1 mM azelaic acid in 5 mM MES (pH 5.6, white bars). (C) Twenty three-day-old plants were pretreated with 1, 10, 100, and 1000 μM azelaic acid in 5 mM MES or 5 mM MES for 2 days and then subjected to infection with virulent PmaDG3 at OD600=0.0001. […] (D) Plants were treated with 5 mM MES or 1 mM azelaic acid for the indicated times prior to inoculation with virulent PmaDG3. Inoculations with PmaDG3 were performed between noon and 1 pm. Azelaic acid (Aza) in 5 mM MES was applied to plants using a hand-sprayer. The growth of bacteria was measured on day 3 after inoculation. […] (E) Plants were treated and infected as in (D), except that infections were performed between […]. (*p<0.04). These experiments were repeated two to four times to confirm reproducibility.
Biological activity of azelaic acid in inducing disease resistance. […]

virulent PmaDG3 = assay: Azelaic acid-induced resistance against virulent PmaDG3 infection
Method: as §1
1 mM azelaic acid in 5 mM MES was applied to wild-type Col, SAR-defective, and SA-deficient mutants (A) and jasmonic acid/ethylene-insensitive mutants (B) 2 days prior to challenge-inoculation of virulent PmaDG3 (OD600=0.0001). […] The experiments were repeated a minimum of three times. The number of asterisks indicates samples that were different from one another at given levels of statistical significance (*p<0.05, **p<0.01).
(§2) Biological activity of azelaic acid in inducing disease resistance. 1 mM azelaic acid was infiltrated into leaves 3 and 4 of 3-week old plants. Two days later, plants were inoculated with virulent PmaDG3 onto leaves 3 and 4 or in the upper leaves, which were not pre-treated with azelaic acid (systemic leaves). Azelaic acid (1 mM) dissolved in 5 mM MES (pH 5.6) was not toxic to plant cell. […] Mock-treated and azelaic acid-treated plants were also infiltrated with avirulent derivatives of P. syringae pv. maculicola carrying avrRpt2 (PmaDG6) or avrRpm1 (PmaDG34).
PmaDG3 growth was measured after spray treatment of plants with various concentrations of azelaic acid. […] It was also tested whether azelaic acid required a certain induction period for the induced resistance response. […] However, when plants were grown in the dark for 12 hours after treatment, azelaic acid was ineffective at conferring disease resistance (FIG. 3E). […] Thus, azelaic acid induces a light-dependent disease resistance response against infection with P. syringae that is also concentration- and time-dependent.
To further characterize how plants regulate azelaic acid-induced resistance, 1 mM azelaic acid was sprayed onto wild type and several mutant plants 2 days before infection with virulent PmaDG3 and bacterial growth was measured. Unlike wild-type plants, the SA pathway mutants tested were susceptible to virulent PmaDG3 infection regardless of treatment with azelaic acid (FIG. 4A). […] Pathogen resistance was also dependent on […], which is important for SA-induced disease resistance and SAR maintenance in Arabidopsis. The growth of bacteria was also monitored in leaves of JA- and ethylene-insensitive mutants, jar1 and etr1, following treatment with 1 mM azelaic acid.

PR1 expression = assay: Priming of PR1 expression after virulent PmaDG3 infection; conditions: 1 mM spray 2 days before PmaDG3 (OD600=0.01); vs mock
Method: (§3) Five mM MES or 1 mM azelaic acid in 5 mM MES were applied to leaves of wild-type Col Arabidopsis 2 days prior to inoculation of 10 mM MgSO4 (M), virulent PmaDG3 (V) and avirulent PmaDG6 expressing AvrRpt2 (Av). Leaves were collected at different times after inoculation and endogenous free and total SA level was measured. (B) Relative PR1 expression in leaves of mock-treated plants and azelaic acid-treated plants after virulent PmaDG3 infection. The expression of PR1 is plotted on a log scale. The number of asterisks indicates samples that were different from one another at given levels of statistical significance (*p<0.075, **p<0.05, ***p<0.01).
Since SA signaling mutants were compromised in responding to azelaic acid, it was investigated whether azelaic acid might prime SA synthesis or SA-dependent defense responses in plants. To test this, plants were sprayed with 1 mM azelaic acid (or 5 mM MES) and after two days infected with virulent PmaDG3 and avirulent PmaDG6 (carrying avrRpt2) (OD600=0.01). […] The priming effect by azelaic acid was also investigated by analyzing PR1 expression, a molecular marker for SA signaling (FIG. 6B). Mock- and azelaic acid-treated plants were infected with virulent PmaDG3 (OD600=0.01) 2 days after spray treatments. PR1 expression was increased in both azelaic acid treated and untreated plants after infection with the virulent strain. […]

[2] = tested on: salicylic acid and camalexin levels; assay: Endogenous salicylic acid and camalexin levels after azelaic acid spray; conditions: 1 mM spray, no infection, vs mock
Method: (§4) (A) Time course of free and total salicylic acid levels in leaves of Col after spray treatments with 5 mM MES (black bars) and 1 mM azelaic acid in 5 mM MES (white bars). (B) Camalexin levels in leaves of Col after azelaic acid treatment by spraying. Each experiment in (A) and (B) was performed with three different samples and the experiments were repeated three times. (C) Expression of an LTP gene (At2g38530) was elevated after azelaic acid treatment performed as in (A), however expression of PR1 and many other defense-related genes was unaffected. RT-PCR (23 cycles) was used to assess gene expression, with EF1a serving as a loading control.
Since resistance to P. syringae requires activation of SA-dependent defenses accompanied by elevated endogenous SA levels, it was investigated whether azelaic acid directly induces SA accumulation. […] Additionally, the levels of the phytoalexin Camalexin, a defense metabolite, were similar in azelaic acid-treated and mock-treated plants (FIG. 5B). […] To investigate whether azelaic acid might affect additional defense markers, expression of defense-related genes was monitored using a mini array. […] RT-PCR confirmed that At2g38530 was induced by azelaic acid. However, PR1, a SA signaling marker, was not induced by azelaic acid. […]

plant cell = assay: Toxicity of azelaic acid to plant cell; conditions: 1 mM in 5 mM MES (pH 5.6)
Method: as §2

[3] = tested on: SA-dependent defense signaling; assay: Priming of SA accumulation after Pseudomonas syringae infection
Method: as §3
Since SA signaling mutants were compromised in responding to azelaic acid, it was investigated whether azelaic acid might prime SA synthesis or SA-dependent defense responses in plants. To test this, plants were sprayed with 1 mM azelaic acid (or 5 mM MES) and after two days infected with virulent PmaDG3 and avirulent PmaDG6 (carrying avrRpt2) (OD600=0.01). […] The priming effect by azelaic acid was also investigated by analyzing PR1 expression, a molecular marker for SA signaling (FIG. 6B). Mock- and azelaic acid-treated plants were infected with virulent PmaDG3 (OD600=0.01) 2 days after spray treatments. PR1 expression was increased in both azelaic acid treated and untreated plants after infection with the virulent strain. However, the expression was higher in leaves pretreated with azelaic acid after pathogen infection, compared with expression in mock-treated plants following pathogen infection (note the log scale in FIG. 6B).

defense-related genes = assay: Defense-related gene expression after azelaic acid treatment (mini array, RT-PCR)
Method: as §4
Since resistance to P. syringae requires activation of SA-dependent defenses accompanied by elevated endogenous SA levels, it was investigated whether azelaic acid directly induces SA accumulation. […] Additionally, the levels of the phytoalexin Camalexin, a defense metabolite, were similar in azelaic acid-treated and mock-treated plants (FIG. 5B). […] To investigate whether azelaic acid might affect additional defense markers, expression of defense-related genes was monitored using a mini array. […] RT-PCR confirmed that At2g38530 was induced by azelaic acid. However, PR1, a SA signaling marker, was not induced by azelaic acid. Thus, azelaic acid appears not to induce large changes in known signaling pathways activated by P. syrinagae, but does induce at least one defense-related gene.

O=C(O)CCCCCCCC(=O)O [azelaic acid]
growth of PmaDG6 [1]: reduction in the growth
resistance, pretreatment 12 hours prior to pathogen challenge (virulent PmaDG3; 1 mM hand sprayer, light): low level of resistance
resistance, pretreatment 6 hours prior to infection (virulent PmaDG3; 1 mM hand sprayer, plants grown in the light): still susceptible
disease symptoms (virulent PmaDG3; 1 mM infiltrated 2 days before PmaDG3 challenge): significant reduction in the disease symptoms; also recorded: very little disease symptom development
growth of PmaDG3 (virulent PmaDG3; 1 mM infiltrated 2 days before challenge, local and systemic leaves): reduction in pathogen growth; also recorded: significantly reduced
protection, inoculation 48 h after spraying (virulent PmaDG3; 1 mM spray): Significant protection
disease resistance, plants in the dark for 12 hours after treatment (virulent PmaDG3; 1 mM spray, dark): ineffective
resistance to PmaDG3 in SAR-defective / SA pathway mutants (virulent PmaDG3; 1 mM sprayed 2 days before infection): did not induce plant resistance; also recorded: susceptible
resistance in jar1 and etr1 mutants (virulent PmaDG3; 1 mM, JA- and ethylene-insensitive mutants): did not affect; also recorded: effective in restricting bacterial growth
bacterial growth (virulent PmaDG3; 1 or 10 μM vs 5 mM MES): no difference in bacterial growth
suppression of bacteria growth (virulent PmaDG3; 100 and 1000 μM pretreatment): 10 fold
resistance to PmaDG3 / growth of bacteria (virulent PmaDG3; 100 and 1000 μM pretreatment for 2 days): significant reduction of the growth of bacteria; also recorded: resistant to PmaDG3
PR1 expression after pathogen infection (PR1 expression): higher
Camalexin levels [2]: does not affect; also recorded: similar
free and total SA level [2]: does not affect; also recorded: no significant difference
toxicity to plant cell (plant cell): not toxic
levels of free SA ([3]; 1 mM spray 2 days before, 6 and 18 hrs after virulent PmaDG3 infection, vs mock, p<0.05): significantly higher
total SA accumulation ([3]; 18 hrs after inoculation with both PmaDG3 and PmaDG6, vs mock, p<0.01): higher level
levels of free SA ([3]; after infection with PmaDG6 (carrying avrRpt2)): not statistically significant
Endogenous free and total SA levels during Pseudomonas syringae infections ([3]; vs mock-treated plants): significantly higher
At2g38530 expression by RT-PCR (defense-related genes; RT-PCR): elevated; also recorded: induced
PR1 expression (defense-related genes; azelaic acid alone, no infection): unaffected; also recorded: not induced
induction of LTP gene At2g38530 (defense-related genes; mini array): 3 fold
expression of most defense-related genes (defense-related genes; mini array, vs mock): unaffected; also recorded: no difference in expression
